Measured values reported in PubChem BioAssay AID248 (DTP/NCI, 2004).
Several values for one entry are separate records, joined by “and”; a condition that tells them apart may be missing. Equal values may be shown once. Inconclusive results and toxic doses are left out.

System: L1210 leukemia ip in BDF1 mice, survival T/C
Assay: NCI In Vivo Anticancer Drug Screen. Data for tumor model L1210 Leukemia (intraperitoneal) in B6D2F1 (BDF1) mice
Settings: endpoint: mean survival time, higher = longer survival
Summary of the method: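 Tumor cells were implanted, animals were treated, and survival was followed. The result divides the treated measurement by the vehicle-control measurement.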

[1] = dose: 100.0 mg/kg/injection, schedule: Q01DX009 (ip), vehicle: Klucel (hydroxypropylcellulose) (HPC)
[2] = dose: 200.0 mg/kg/injection, schedule: Q01DX009 (ip), vehicle: Klucel (hydroxypropylcellulose) (HPC)
[3] = dose: 400.0 mg/kg/injection, schedule: Q01DX009 (ip), vehicle: Klucel (hydroxypropylcellulose) (HPC)
[4] = dose: 100.0 mg/kg/injection, schedule: Q04DX003 (ip), vehicle: saline with Tween-80
[5] = dose: 200.0 mg/kg/injection, schedule: Q04DX003 (ip), vehicle: saline with Tween-80
[6] = dose: 400.0 mg/kg/injection, schedule: Q04DX003 (ip), vehicle: saline with Tween-80
[7] = dose: 100.0 mg/kg/injection, schedule: Q01DX001 (ip), vehicle: saline
[8] = dose: 200.0 mg/kg/injection, schedule: Q01DX001 (ip), vehicle: saline
[9] = dose: 12.5 mg/kg/injection, schedule: Q01DX009 (ip), vehicle: Klucel (hydroxypropylcellulose) (HPC)
[10] = dose: 100.0 mg/kg/injection, schedule: Q04DX003 (ip), vehicle: Klucel (hydroxypropylcellulose) (HPC)
[11] = dose: 100.0 mg/kg/injection, schedule: Q01DX009 (ip), vehicle: saline
[12] = dose: 100.0 mg/kg/injection, schedule: Q04DX003 (ip), vehicle: saline
[13] = dose: 200.0 mg/kg/injection, schedule: Q01DX009 (ip), vehicle: saline
[14] = dose: 200.0 mg/kg/injection, schedule: Q04DX003 (ip), vehicle: saline
[15] = dose: 400.0 mg/kg/injection, schedule: Q01DX001 (ip), vehicle: saline
[16] = dose: 100.0 mg/kg/injection, schedule: Q04DX002 (ip), vehicle: saline with Tween-80
[17] = dose: 200.0 mg/kg/injection, schedule: Q04DX002 (ip), vehicle: saline with Tween-80
[18] = dose: 400.0 mg/kg/injection, schedule: Q04DX002 (ip), vehicle: saline with Tween-80
[19] = dose: 12.5 mg/kg/injection, schedule: Q04DX003 (ip), vehicle: Klucel (hydroxypropylcellulose) (HPC)
[20] = dose: 25.0 mg/kg/injection, schedule: Q04DX003 (ip), vehicle: Klucel (hydroxypropylcellulose) (HPC)
[21] = dose: 50.0 mg/kg/injection, schedule: Q04DX003 (ip), vehicle: Klucel (hydroxypropylcellulose) (HPC)
[22] = dose: 100.0 mg/kg/injection, schedule: Q01DX009 (ip), vehicle: saline with Tween-80
[23] = dose: 200.0 mg/kg/injection, schedule: Q01DX009 (ip), vehicle: saline with Tween-80

O=C(Nc1ccc(NC(=O)Nc2ccc(C3=NCCN3)cc2)cc1)Nc1ccc(C2=NCCN2)cc1
T/C (dose: 110.0 mg/kg/injection, schedule: Q01DX Z (ip), vehicle: carboxymethylcellulose (CMC)): 100 % of control and 115 % of control
T/C (dose: 240.0 mg/kg/injection, schedule: Q01DX Z (oral), vehicle: carboxymethylcellulose (CMC)): 98 % of control
T/C (dose: 303.0 mg/kg/injection, schedule: Q01DX Z (ip), vehicle: carboxymethylcellulose (CMC)): 160 % of control
T/C (dose: 375.0 mg/kg/injection, schedule: Q01DX Z (ip), vehicle: carboxymethylcellulose (CMC)): 98 % of control
T/C (dose: 455.0 mg/kg/injection, schedule: Q01DX Z (ip), vehicle: carboxymethylcellulose (CMC)): 93 % of control
T/C (dose: 480.0 mg/kg/injection, schedule: Q01DX Z (oral), vehicle: carboxymethylcellulose (CMC)): 104 % of control
T/C (dose: 960.0 mg/kg/injection, schedule: Q01DX Z (oral), vehicle: carboxymethylcellulose (CMC)): 107 % of control

CCN(CC)C(=O)Nc1ccccc1F
T/C [1]: 104 % of control
T/C [2]: 98 % of control
T/C [3]: 119 % of control

N=c1ccccn1C(=O)C1=Cc2ccccc2OC1
T/C (dose: 100.0 mg/kg/injection, schedule: Q01DX001 (ip), vehicle: saline with Tween-80): 103 % of control
T/C (dose: 200.0 mg/kg/injection, schedule: Q01DX001 (ip), vehicle: saline with Tween-80): 100 % of control
T/C (dose: 400.0 mg/kg/injection, schedule: Q01DX001 (ip), vehicle: saline with Tween-80): 96 % of control

COC1OC(COCc2ccccc2)C(OCc2ccccc2)C(OC)C1O (stereo unspecified)
T/C [4]: 96 % of control
T/C [5]: 94 % of control
T/C [6]: 104 % of control

CN(CC(O)CN)c1ccccc1 (stereo unspecified)
T/C [7]: 102 % of control
T/C [8]: 94 % of control

Cc1ccc(C)c(S(=O)(=O)OCC2CO2)c1 (stereo unspecified)
T/C [4]: 104 % of control
T/C [5]: 101 % of control
T/C [6]: 101 % of control

CCCCCC(=O)c1c(O)cc(=O)oc1C
T/C (dose: 3.12 mg/kg/injection, schedule: Q01DX009 (ip), vehicle: Klucel (hydroxypropylcellulose) (HPC)): 95 % of control
T/C (dose: 6.25 mg/kg/injection, schedule: Q01DX009 (ip), vehicle: Klucel (hydroxypropylcellulose) (HPC)): 98 % of control
T/C [9]: 103 % of control
T/C [10]: 90 % of control

CNCC(OC)c1ccc(O)c(O)c1 (stereo unspecified)
T/C [11]: 105 % of control
T/C [12]: 108 % of control
T/C [13]: 105 % of control
T/C [14]: 106 % of control
T/C (dose: 400.0 mg/kg/injection, schedule: Q04DX003 (ip), vehicle: saline): 108 % of control

CNc1nc[nH]c(=O)c1NC(=O)c1ccccc1
T/C (dose: 45.0 mg/kg/injection, schedule: Q01DX001 (ip), vehicle: Klucel (hydroxypropylcellulose) (HPC)): 103 % of control
T/C (dose: 90.0 mg/kg/injection, schedule: Q01DX001 (ip), vehicle: Klucel (hydroxypropylcellulose) (HPC)): 95 % of control
T/C (dose: 180.0 mg/kg/injection, schedule: Q01DX001 (ip), vehicle: Klucel (hydroxypropylcellulose) (HPC)): 92 % of control

O=CC(S)CO (stereo unspecified)
T/C [8]: 103 % of control
T/C [15]: 97 % of control
T/C (dose: 800.0 mg/kg/injection, schedule: Q01DX001 (ip), vehicle: saline): 108 % of control

CCCCOC(=O)CCl
T/C [16]: 100 % of control
T/C [17]: 107 % of control

COc1ccc(C(N)=O)cc1
T/C [16]: 94 % of control
T/C [17]: 94 % of control
T/C [18]: 109 % of control

COc1cc2c(cc1OC)C(C=C(c1ccccc1)c1ccccc1)N(C)CC2 (stereo unspecified)
T/C [9]: 94 % of control
T/C [19]: 95 % of control
T/C (dose: 25.0 mg/kg/injection, schedule: Q01DX009 (ip), vehicle: Klucel (hydroxypropylcellulose) (HPC)): 103 % of control
T/C [20]: 101 % of control
T/C (dose: 50.0 mg/kg/injection, schedule: Q01DX009 (ip), vehicle: Klucel (hydroxypropylcellulose) (HPC)): 96 % of control
T/C [21]: 96 % of control

CC(=O)OCN1C(=O)N(COC(C)=O)C(c2ccccc2)(c2ccccc2)C1=O
T/C [22]: 102 % of control
T/C [16]: 102 % of control
T/C [23]: 87 % of control
T/C [17]: 102 % of control
T/C [18]: 106 % of control

c1ccc(NC2=NCCCN2)cc1
T/C (dose: 12.5 mg/kg/injection, schedule: Q01DX001 (ip), vehicle: saline with Tween-80): 102 % of control
T/C (dose: 25.0 mg/kg/injection, schedule: Q01DX001 (ip), vehicle: saline with Tween-80): 97 % of control
T/C (dose: 50.0 mg/kg/injection, schedule: Q01DX001 (ip), vehicle: saline with Tween-80): 91 % of control

CC(c1ccccc1)n1cncc1C(=O)N(C)C (stereo unspecified)
T/C (dose: 50.0 mg/kg/injection, schedule: Q01DX009 (ip), vehicle: saline): 96 % of control
T/C [11]: 101 % of control
T/C [12]: 97 % of control
T/C [13]: 97 % of control
T/C [14]: 93 % of control

C=CCOCC(O)COP(=O)(O)O (stereo unspecified)
T/C (dose: 50.0 mg/kg/injection, schedule: Q01DX001 (ip), vehicle: saline): 113 % of control
T/C [7]: 103 % of control
T/C [8]: 107 % of control
T/C [15]: 109 % of control

CCOC(=O)NNC(=O)c1ccccc1N(C)C
T/C [1]: 94 % of control
T/C [10]: 101 % of control
T/C [2]: 91 % of control
T/C (dose: 200.0 mg/kg/injection, schedule: Q04DX003 (ip), vehicle: Klucel (hydroxypropylcellulose) (HPC)): 101 % of control
T/C [3]: 97 % of control
T/C (dose: 400.0 mg/kg/injection, schedule: Q04DX003 (ip), vehicle: Klucel (hydroxypropylcellulose) (HPC)): 95 % of control

CC1CCC2(OC1)OC1CC3C4CCC5CC(O)CCC5(C)C4CC(=O)OC3(C)C1C2C (stereo unspecified)
T/C (dose: 100.0 mg/kg/injection, schedule: Q01DX001 (ip), vehicle: other): 97 % of control
T/C (dose: 200.0 mg/kg/injection, schedule: Q01DX001 (ip), vehicle: other): 87 % of control
T/C (dose: 400.0 mg/kg/injection, schedule: Q01DX001 (ip), vehicle: other): 92 % of control

O=C(c1ccccc1)C1CSSC1c1ccccc1 (stereo unspecified)
T/C [19]: 100 % of control
T/C [20]: 100 % of control
T/C [21]: 97 % of control

N#Cc1c[nH]n2c(=S)ncnc12
T/C [22]: 105 % of control
T/C [23]: 101 % of control

COc1ccccc1OC(=O)Nc1ccc(C)c([N+](=O)[O-])c1
T/C (dose: 25.0 mg/kg/injection, schedule: Q01DX009 (ip), vehicle: saline with Tween-80): 95 % of control
T/C (dose: 50.0 mg/kg/injection, schedule: Q01DX009 (ip), vehicle: saline with Tween-80): 118 % of control
T/C [22]: 92 % of control
